Measured values: PubChem BioAssay AID256 (DTP/NCI, 2004)
Where “and” joins values, the source holds several entries; their conditions need not be identical. Equal entries are not always repeated. Inconclusive results and toxic doses are left out.

Tested on: CD2F1 mice, L1210 leukemia ip, survival T/C
Experiment: NCI In Vivo Anticancer Drug Screen. Data for tumor model L1210 Leukemia (intraperitoneal) in CD2F1 (CDF1) mice
Settings: higher = longer survival
In short: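 Antitumor effect is scored in animals hosting a serially transplanted tumor. Values compare compound-dosed animals against vehicle-only controls as a simple quotient.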

[1] = endpoint: mean survival time, dose: 100.0 mg/kg/injection, schedule: Q01DX001 (ip), vehicle: saline
[2] = endpoint: mean survival time, dose: 200.0 mg/kg/injection, schedule: Q01DX001 (ip), vehicle: saline
[3] = endpoint: mean survival time, dose: 400.0 mg/kg/injection, schedule: Q01DX001 (ip), vehicle: saline
[4] = endpoint: mean survival time, dose: 100.0 mg/kg/injection, schedule: Q01DX001 (ip), vehicle: saline with Tween-80
[5] = endpoint: mean survival time, dose: 200.0 mg/kg/injection, schedule: Q01DX001 (ip), vehicle: saline with Tween-80
[6] = endpoint: mean survival time, dose: 400.0 mg/kg/injection, schedule: Q01DX001 (ip), vehicle: saline with Tween-80
[7] = endpoint: mean survival time, dose: 100.0 mg/kg/injection, schedule: Q04DX003 (ip), vehicle: saline with Tween-80
[8] = endpoint: mean survival time, dose: 75.0 mg/kg/injection, schedule: Q01DX001 (ip), vehicle: saline

CCOC(=O)NC(=O)O
T/C [1]: 114 % of control
T/C [2]: 103 % of control
T/C [3]: 97 % of control

COC1C(O)CC(=O)OC(C)C/C=C/C=C/C(OC2CCC(N(C)C)C(C)O2)C(C)CC(CC=O)C1OC1OC(C)C(OC2CC(C)(O)C(O)C(C)O2)C(N(C)C)C1O (stereo not drawn)
T/C (endpoint: mean survival time, dose: 6.3 mg/kg/injection, schedule: Q03HX024 (ip), vehicle: saline): 100 % of control
T/C (endpoint: mean survival time, dose: 12.5 mg/kg/injection, schedule: Q03HX008 (ip), vehicle: saline): 100 % of control
T/C (endpoint: mean survival time, dose: 12.5 mg/kg/injection, schedule: Q03HX024 (ip), vehicle: saline): 100 % of control
T/C (endpoint: mean survival time, dose: 25.0 mg/kg/injection, schedule: Q03HX008 (ip), vehicle: saline): 97 % of control
T/C (endpoint: mean survival time, dose: 25.0 mg/kg/injection, schedule: Q03HX024 (ip), vehicle: saline): 101 % of control
T/C (endpoint: mean survival time, dose: 50.0 mg/kg/injection, schedule: Q01DX009 (ip), vehicle: saline): 98 % of control
T/C (endpoint: mean survival time, dose: 50.0 mg/kg/injection, schedule: Q03HX008 (ip), vehicle: saline): 100 % of control
T/C (endpoint: mean survival time, dose: 50.0 mg/kg/injection, schedule: Q03HX024 (ip), vehicle: saline): 103 % of control
T/C [1]: 102 % of control
T/C (endpoint: mean survival time, dose: 100.0 mg/kg/injection, schedule: Q01DX009 (ip), vehicle: saline): 96 % of control
T/C (endpoint: mean survival time, dose: 100.0 mg/kg/injection, schedule: Q03HX008 (ip), vehicle: saline): 97 % of control
T/C (endpoint: mean survival time, dose: 100.0 mg/kg/injection, schedule: Q04DX003 (ip), vehicle: saline): 98 % of control
T/C [2]: 98 % of control
T/C (endpoint: mean survival time, dose: 200.0 mg/kg/injection, schedule: Q01DX009 (ip), vehicle: saline): 102 % of control
T/C (endpoint: mean survival time, dose: 200.0 mg/kg/injection, schedule: Q04DX003 (ip), vehicle: saline): 100 % of control
T/C [3]: 106 % of control
T/C (endpoint: mean survival time, dose: 400.0 mg/kg/injection, schedule: Q01DX009 (ip), vehicle: saline): 98 % of control
T/C (endpoint: mean survival time, dose: 400.0 mg/kg/injection, schedule: Q04DX003 (ip), vehicle: saline): 100 % of control

CSc1ncnc2nn(C3OC(COC(=O)c4ccccc4)C(OC(=O)c4ccccc4)C3OC(=O)c3ccccc3)nc12 (stereo not drawn)
T/C (endpoint: median survival time, dose: 12.5 mg/kg/injection, schedule: Q01DX005 (ip), vehicle: Klucel (hydroxypropylcellulose) (HPC)): 94 % of control
T/C (endpoint: median survival time, dose: 25.0 mg/kg/injection, schedule: Q01DX005 (ip), vehicle: Klucel (hydroxypropylcellulose) (HPC)): 86 % of control
T/C (endpoint: median survival time, dose: 50.0 mg/kg/injection, schedule: Q01DX005 (ip), vehicle: Klucel (hydroxypropylcellulose) (HPC)): 87 % of control
T/C (endpoint: median survival time, dose: 100.0 mg/kg/injection, schedule: Q01DX005 (ip), vehicle: Klucel (hydroxypropylcellulose) (HPC)): 93 % of control and 95 % of control
T/C (endpoint: median survival time, dose: 200.0 mg/kg/injection, schedule: Q01DX005 (ip), vehicle: Klucel (hydroxypropylcellulose) (HPC)): 89 % of control and 95 % of control
T/C (endpoint: median survival time, dose: 400.0 mg/kg/injection, schedule: Q01DX005 (ip), vehicle: Klucel (hydroxypropylcellulose) (HPC)): 95 % of control

CCCCCCC[CH2][Sn]1([CH2]CCCCCCC)[O]CC2OC(n3cc(C)c(=O)[nH]c3=O)CC2[O]1 (stereo not drawn)
T/C (endpoint: mean survival time, dose: 12.5 mg/kg/injection, schedule: Q01DX005 (ip), vehicle: other): 94 % of control
T/C (endpoint: mean survival time, dose: 25.0 mg/kg/injection, schedule: Q01DX005 (ip), vehicle: other): 100 % of control
T/C (endpoint: mean survival time, dose: 50.0 mg/kg/injection, schedule: Q01DX005 (ip), vehicle: other): 114 % of control

Nc1ccccc1Nc1ccccc1
T/C (endpoint: mean survival time, dose: 100.0 mg/kg/injection, schedule: Q01DX001 (ip), vehicle: saline + alcohol): 101 % of control
T/C (endpoint: mean survival time, dose: 200.0 mg/kg/injection, schedule: Q01DX001 (ip), vehicle: saline + alcohol): 97 % of control

O=[N+]([O-])c1cccc(S(=O)(=O)SC(Cl)(Cl)Cl)c1
T/C (endpoint: mean survival time, dose: 6.25 mg/kg/injection, schedule: Q04DX003 (ip), vehicle: saline): 102 % of control
T/C (endpoint: mean survival time, dose: 12.5 mg/kg/injection, schedule: Q04DX003 (ip), vehicle: saline): 97 % of control
T/C (endpoint: mean survival time, dose: 25.0 mg/kg/injection, schedule: Q04DX003 (ip), vehicle: saline): 102 % of control

O=CNCCc1ccc2c(c1)[nH]c1ccccc12
T/C [1]: 95 % of control
T/C [2]: 98 % of control
T/C [3]: 98 % of control

CCCC(C)(CCC)OC(=O)Nc1cccc2ccccc12
T/C [4]: 92 % of control
T/C [5]: 92 % of control
T/C [6]: 92 % of control

Nc1ncnc2c1ncn2C1OC(CO)C(=C(Br)Br)C1O (stereo not drawn)
T/C (endpoint: mean survival time, dose: 6.25 mg/kg/injection, schedule: Q01DX005 (ip), vehicle: distilled water + Tween-80): 103 % of control
T/C (endpoint: mean survival time, dose: 12.5 mg/kg/injection, schedule: Q01DX005 (ip), vehicle: distilled water + Tween-80): 100 % of control
T/C (endpoint: mean survival time, dose: 25.0 mg/kg/injection, schedule: Q01DX005 (ip), vehicle: distilled water + Tween-80): 97 % of control
T/C (endpoint: mean survival time, dose: 50.0 mg/kg/injection, schedule: Q01DX005 (ip), vehicle: distilled water + Tween-80): 101 % of control
T/C (endpoint: mean survival time, dose: 100.0 mg/kg/injection, schedule: Q01DX005 (ip), vehicle: distilled water + Tween-80): 100 % of control

CC(C)C(O)C(C)[N+](=O)[O-] (stereo not drawn)
T/C (endpoint: mean survival time, dose: 25.0 mg/kg/injection, schedule: Q01DX001 (ip), vehicle: saline with Tween-80): 86 % of control
T/C (endpoint: mean survival time, dose: 50.0 mg/kg/injection, schedule: Q01DX001 (ip), vehicle: saline with Tween-80): 96 % of control

CCOC(OCC)C(=O)OCC(=O)[C@]1(O)Cc2c(O)c3c(c(O)c2[C@@H](OC2CC(N)C(O)C(C)O2)C1)C(=O)c1c(OC)cccc1C3=O (stereo partly drawn)
T/C (endpoint: mean survival time, dose: 0.13 mg/kg/injection, schedule: Q01DX009 (ip), vehicle: saline): 104 % of control
T/C (endpoint: mean survival time, dose: 0.25 mg/kg/injection, schedule: Q01DX009 (ip), vehicle: saline): 118 % of control and 107 % of control
T/C (endpoint: mean survival time, dose: 0.5 mg/kg/injection, schedule: Q01DX009 (ip), vehicle: saline): 110 % of control
T/C (endpoint: mean survival time, dose: 1.0 mg/kg/injection, schedule: Q01DX009 (ip), vehicle: saline): 174 % of control
T/C (endpoint: mean survival time, dose: 2.0 mg/kg/injection, schedule: Q01DX009 (ip), vehicle: saline): 160 % of control
T/C (endpoint: mean survival time, dose: 4.0 mg/kg/injection, schedule: Q01DX009 (ip), vehicle: saline): 104 % of control

O=[N+]([O-])c1ccc2nc(Cl)sc2c1
T/C (endpoint: mean survival time, dose: 25.0 mg/kg/injection, schedule: Q01DX009 (ip), vehicle: saline with Tween-80): 102 % of control
T/C (endpoint: mean survival time, dose: 50.0 mg/kg/injection, schedule: Q01DX009 (ip), vehicle: saline with Tween-80): 103 % of control
T/C (endpoint: mean survival time, dose: 100.0 mg/kg/injection, schedule: Q01DX009 (ip), vehicle: saline with Tween-80): 100 % of control
T/C [7]: 86 % of control

CCSC1=[N+](SCC)CCCS1
T/C [8]: 103 % of control

O=c1oc(-c2ccc3c(c2)OCO3)nc2ccccc12
T/C [7]: 91 % of control
T/C (endpoint: mean survival time, dose: 200.0 mg/kg/injection, schedule: Q04DX003 (ip), vehicle: saline with Tween-80): 87 % of control

O=C(O)C(O)C(O)C(=O)O.[NH-]C1CCCCCC1[NH-].[Pt+2] (stereo not drawn)
T/C (endpoint: mean survival time, dose: 2.5 mg/kg/injection, schedule: Q04DX003 (ip), vehicle: dextrose): 123 % of control
T/C (endpoint: mean survival time, dose: 5.0 mg/kg/injection, schedule: Q04DX003 (ip), vehicle: dextrose): 153 % of control
T/C (endpoint: mean survival time, dose: 20.0 mg/kg/injection, schedule: Q04DX003 (ip), vehicle: dextrose): 152 % of control and 273 % of control

CCOC(=O)CCN1CCCC2(C1)OCCO2
T/C (endpoint: mean survival time, dose: 12.5 mg/kg/injection, schedule: Q04DX002 (ip), vehicle: saline): 109 % of control
T/C (endpoint: mean survival time, dose: 25.0 mg/kg/injection, schedule: Q04DX002 (ip), vehicle: saline): 95 % of control
T/C (endpoint: mean survival time, dose: 50.0 mg/kg/injection, schedule: Q04DX002 (ip), vehicle: saline): 98 % of control

CN(C)c1ccc(N=Nc2ccc(S(=O)(=O)O)cc2)cc1.CN(C)c1ccc(N=Nc2ccc(S(=O)(=O)O)cc2)cc1.[NH-]C1CCCCC1[NH-].[Pt+2]
T/C (endpoint: median survival time, dose: 3.12 mg/kg/injection, schedule: Q04DX003 (ip), vehicle: saline): 121 % of control and 107 % of control
T/C (endpoint: median survival time, dose: 6.25 mg/kg/injection, schedule: Q04DX003 (ip), vehicle: saline): 109 % of control
T/C (endpoint: median survival time, dose: 100.0 mg/kg/injection, schedule: Q04DX003 (ip), vehicle: saline): 105 % of control
T/C (endpoint: median survival time, dose: 200.0 mg/kg/injection, schedule: Q04DX003 (ip), vehicle: saline): 116 % of control

C(=N\Nc1ccccc1)/c1ccccc1
T/C [4]: 107 % of control
T/C (endpoint: mean survival time, dose: 100.0 mg/kg/injection, schedule: Q04DX003 (ip), vehicle: Klucel (hydroxypropylcellulose) (HPC)): 106 % of control
T/C [5]: 94 % of control
T/C (endpoint: mean survival time, dose: 200.0 mg/kg/injection, schedule: Q04DX003 (ip), vehicle: Klucel (hydroxypropylcellulose) (HPC)): 98 % of control
T/C [6]: 100 % of control
T/C (endpoint: mean survival time, dose: 400.0 mg/kg/injection, schedule: Q04DX003 (ip), vehicle: Klucel (hydroxypropylcellulose) (HPC)): 96 % of control

O=C1NCCCS1(=O)=O
T/C [8]: 108 % of control
